Here are results for twelve compounds from article PMC12114630 (Pharmaceuticals, 2025).

Where two headings read alike, the source gives them in different places.

One experiment deals with T1, D4R (hD4.4R) (Homo sapiens, UniProt P21917).
T1 construct: gene DRD4; human cloned receptor stably expressed in HEK293 cells; membranes
T1 sequence (P21917 1-419): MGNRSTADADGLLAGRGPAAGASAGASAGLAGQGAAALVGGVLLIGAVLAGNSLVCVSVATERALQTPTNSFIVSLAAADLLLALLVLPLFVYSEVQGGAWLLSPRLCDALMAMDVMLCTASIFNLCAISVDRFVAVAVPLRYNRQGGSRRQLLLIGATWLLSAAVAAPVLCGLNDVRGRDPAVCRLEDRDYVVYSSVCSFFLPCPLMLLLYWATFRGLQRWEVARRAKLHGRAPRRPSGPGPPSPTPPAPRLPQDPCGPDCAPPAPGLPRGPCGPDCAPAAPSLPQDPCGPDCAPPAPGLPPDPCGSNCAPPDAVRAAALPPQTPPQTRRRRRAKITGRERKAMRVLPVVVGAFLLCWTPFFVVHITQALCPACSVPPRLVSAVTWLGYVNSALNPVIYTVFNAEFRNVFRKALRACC
Put plainly: [3H]N-methylspiperone competition, membranes. Type of experiment: binding. The conditions noted are these: read-out: pKi / D4R (converted). An excerpt: [3H]N-methylspiperone competition, membranes on D4R (hD4.4R)

The target of a further experiment is T2, D3R (hD3R) (Homo sapiens, UniProt P35462).
T2 construct: gene DRD3; human cloned receptor stably expressed in HEK293 cells; membranes
T2 sequence (P35462 whole entry): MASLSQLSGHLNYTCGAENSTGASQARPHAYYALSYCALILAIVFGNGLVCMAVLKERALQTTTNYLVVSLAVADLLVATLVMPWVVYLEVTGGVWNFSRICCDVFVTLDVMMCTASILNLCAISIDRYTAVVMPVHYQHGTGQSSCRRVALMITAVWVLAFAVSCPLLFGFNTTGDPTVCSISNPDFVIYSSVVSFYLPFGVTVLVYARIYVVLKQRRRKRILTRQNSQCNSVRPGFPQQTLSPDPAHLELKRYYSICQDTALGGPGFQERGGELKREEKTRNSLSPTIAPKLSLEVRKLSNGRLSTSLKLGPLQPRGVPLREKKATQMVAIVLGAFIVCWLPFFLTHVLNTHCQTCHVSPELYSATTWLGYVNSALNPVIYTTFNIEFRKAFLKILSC
Briefly: [3H]N-methylspiperone competition, membranes. Type of experiment: binding. Particulars: read-out: pKi / D3R (converted). An excerpt:
[3H]N-methylspiperone competition, membranes on D3R (hD3R)

The next experiment deals with T3, D2R (hD2R) (Homo sapiens, UniProt P14416).
T3 construct: gene DRD2; human cloned receptor stably expressed in HEK293 cells; membranes
T3 sequence (P14416 whole entry): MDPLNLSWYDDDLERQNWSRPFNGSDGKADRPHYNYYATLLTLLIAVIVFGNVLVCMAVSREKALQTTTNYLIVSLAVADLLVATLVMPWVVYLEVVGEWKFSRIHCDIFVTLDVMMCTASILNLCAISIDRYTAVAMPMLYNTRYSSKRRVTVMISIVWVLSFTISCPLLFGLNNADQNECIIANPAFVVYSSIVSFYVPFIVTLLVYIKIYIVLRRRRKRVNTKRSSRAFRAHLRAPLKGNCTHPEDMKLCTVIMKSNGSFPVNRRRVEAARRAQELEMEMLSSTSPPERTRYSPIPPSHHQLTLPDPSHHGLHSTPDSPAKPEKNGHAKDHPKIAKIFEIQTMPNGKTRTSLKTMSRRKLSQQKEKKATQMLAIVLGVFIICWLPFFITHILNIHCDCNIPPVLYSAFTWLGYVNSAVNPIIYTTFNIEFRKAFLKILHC
Put plainly: [3H]N-methylspiperone competition, membranes. Type of experiment: binding. The conditions noted are these: read-out: pKi / D2R (converted). The source says:
[3H]N-methylspiperone competition, membranes on D2R (hD2R)

In experiment [1] the target is T4, D4R (BRET assay) (Homo sapiens, UniProt P21917).
T4 construct: gene DRD4; expressed in HEK293T cells for BRET functional assays
T4 sequence (P21917 1-419): T1 sequence (P21917 1-419)
Put plainly: BRET Go activation, agonist mode. Type of experiment: cell-based. The conditions noted are these: read-out: 16 (converted).

Experiment [2] deals with T4, D4R (BRET assay). Put plainly: BRET Go activation, antagonist mode. Type of experiment: cell-based. A general note: BRET reads energy transfer from a luciferase to a nearby fluorophore.

With `O=C1CCc2ccccc2N1CCCCCN1CCC(Cc2ccccc2)CC1` [compound 14, 1-(5-(4-Benzylpiperidin-1-yl)pentyl)-3,4-dihydroquinolin-2(1H)-one], the Ki on D4R (hD4.4R) was 45.7 nM; on D3R (hD3R), 407 nM; at D2R (hD2R) it was 813 nM.

Regarding `CCCCC1CCN(CCCCN2C(=O)CCc3ccccc32)CC1` [compound 10, 1-(4-(4-Butylpiperidin-1-yl)butyl)-3,4-dihydroquinolin-2(1H)-one], the Ki is 23.4 nM on D4R (hD4.4R), 309 nM at D3R (hD3R) and 1350 nM on D2R (hD2R).

Consider `O=C1CCc2ccccc2N1CCCN1CC=C(c2ccccc2)CC1` [compound 19, 1-(3-(4-Phenyl-3,6-dihydropyridin-1(2H)-yl)propyl)-3,4-dihydroquinolin-2(1H)-one], for which the Ki on D4R (hD4.4R) is 1.51 nM; on D3R (hD3R), 245 nM; at D2R (hD2R), 575 nM.

`CCCCN1CCC(CCCN2C(=O)CCc3ccccc32)CC1` [compound 15, 1-(3-(1-Butylpiperidin-4-yl)propyl)-3,4-dihydroquinolin-2(1H)-one]: the Ki at D4R (hD4.4R) is 759 nM; at D3R (hD3R), 1070 nM; on D2R (hD2R), 10200 nM.

`O=C1CCc2ccccc2N1CC1CCN(Cc2ccccc2)CC1` [compound 18, 1-((1-Benzylpiperidin-4-yl)methyl)-3,4-dihydroquinolin-2(1H)-one]: the Ki is 275 nM on D4R (hD4.4R), 7590 nM on D3R (hD3R) and 13200 nM at D2R (hD2R).

As for `O=C1CCc2ccccc2N1CCCC1CCN(Cc2ccccc2)CC1` [compound 16, 1-(3-(1-Benzylpiperidin-4-yl)propyl)-3,4-dihydroquinolin-2(1H)-one], the EC50 on D4R (BRET assay) [1] was 4.37 nM. Further, the Ki was 1.62 nM at D4R (hD4.4R), 2000 nM on D3R (hD3R) and 3630 nM on D2R (hD2R). Besides, the IC50 on D4R (BRET assay) [2] (read-out: 16 (converted)) is 61.7 nM.

Turning to `O=C1CCc2ccccc2N1CCC1CCN(Cc2ccccc2)CC1` [compound 17, 1-(2-(1-Benzylpiperidin-4-yl)ethyl)-3,4-dihydroquinolin-2(1H)-one], the Ki on D4R (hD4.4R) was 302 nM; at D3R (hD3R), 8130 nM; on D2R (hD2R), 12600 nM.

Consider `O=C1CCc2ccccc2N1CCCN1CCc2ccccc2C1` [compound 20, 1-(3-(3,4-Dihydroisoquinolin-2(1H)-yl)propyl)-3,4-dihydroquinolin-2(1H)-one], for which the values for the Ki at D4R (hD4.4R), on D3R (hD3R) and on D2R (hD2R) were 28.2 nM, 229 nM and 447 nM, respectively.

Take `O=C1CCc2ccccc2N1CCN1CCC(Cc2ccccc2)CC1` [compound 12, 1-(2-(4-Benzylpiperidin-1-yl)ethyl)-3,4-dihydroquinolin-2(1H)-one]: the Ki on D4R (hD4.4R) was 0.661 nM; on D3R (hD3R), 933 nM; on D2R (hD2R), 661 nM. In addition, the IC50 on D4R (BRET assay) [2] (read-out: 12 (converted)) was 214 nM.

As to `O=C1CCc2ccccc2N1CCCCN1CCC(Cc2ccccc2)CC1` [compound 13, 1-(4-(4-Benzylpiperidin-1-yl)butyl)-3,4-dihydroquinolin-2(1H)-one], the Ki at D4R (hD4.4R) is 22.4 nM; at D3R (hD3R) it was 302 nM; at D2R (hD2R), 1070 nM.

On to `CCCCC1CCN(CCN2C(=O)CCc3ccccc32)CC1` [compound 9, 1-(2-(4-Butylpiperidin-1-yl)ethyl)-3,4-dihydroquinolin-2(1H)-one], for which the Ki at D4R (hD4.4R) is 17.4 nM; on D3R (hD3R), 13200 nM; at D2R (hD2R), 8910 nM.

For `CCCCC1CCN(CCCCCN2C(=O)CCc3ccccc32)CC1` [compound 11, 1-(5-(4-Butylpiperidin-1-yl)pentyl)-3,4-dihydroquinolin-2(1H)-one], the Ki was 52.5 nM at D4R (hD4.4R), 288 nM at D3R (hD3R) and 302 nM at D2R (hD2R).
